Where a name gives a salt, the structure may show the parent alone.
What was measured:
[1] = system: ptosis induced by tetrabenazine; assay: Ptosis induced by tetrabenazine; assay type: in vivo; settings: for Ptosis score: tetrabenazine 40 mg/kg i.p., 3 hrs, Mean ± S.E., N 6; for effects of erythro-DOPS on combination use of a peripheral decarboxylase inhibitor: combination with erythro-DOPS
Method: L-threo-DOPS (100 mg/kg and 200 mg/kg) was intraperitoneally injected at the same time with the intraperitoneal injection of tetrabenazine (40 mg/kg) and at 1 hr. after the intraperitoneal injection of benserazide or carbidopa.
The score of ptosis was measured by the method of Fukushima et al. (Arch. Int. Pharmacodyn. Therp. 229 163 1977) at 3 hrs. after the injection of tetrabenazine.

[2] = system: aromatic L-amino acid decarboxylase; settings: decarboxylation by aromatic L-amino acid decarboxylase; cited from earlier work
[3] = system: quantity of spontaneous movement of mice; assay: Spontaneous movement of mice pretreated with PIH (Animex); assay type: in vivo
Method: Three mice as one group were put in a movement measuring box of Animex and quantity of spontaneous movements of the mice were measured at given intervals of time.
Thereafter, they gradually became calm and crouched after about 30-40 minutes resulting in much decrease in their spontaneous moving quantity. β-phenylisopropylhydrazine hydrochloride (Catron, trade name) (referred to as "PIH" hereinafter) which is a monoamine oxidase inhibitor (MAOI) was intraperitoneally administered to the mice in an amount of 50 mg/kg.
Separately, 200 mg/kg of DL-erythro-DOPS was intraperitoneally injected to the mice and the effects thereof were examined.
In FIG. 1 the axis of ordinates indicates the quantity of movement (counts/5 min.) and the axis of abscissae indicates the time (minute) from the beginning of measurement of the quantity of spontaneous movement which was after 30 minutes from administration of DL-erythro-DOPS.

[4] = system: quantity of spontaneous movement of mice increased by administration of methamphetamine; assay: Spontaneous movement of mice with methamphetamine; assay type: in vivo
Method: The same experimental system of measuring spontaneous movement quantity of mice as used in Experimental Example 1 was employed in this Example.
In FIG. 2, the axis of ordinates indicates the quantity of spontaneous movement and the axis of abscissa indicates the time (minute) when the time at which the administration of methamphetamine (1.4 mg/kg) alone or methamphetamine with DL-erythro-DOPS (200 mg/kg) was carried out was taken as zero point.

[5] = system: quantity of spontaneous movement of mice administered with tranylcypromine; assay: Spontaneous movement of mice administered with tranylcypromine; assay type: in vivo
Method: The same experimental system of measuring the quantity of spontaneous movement of mice as used in Experimental Example 1 was used in this Example.
In FIG. 3, the axis of ordinates indicates the quantity of spontaneous movement and the axis of abscissae indicates the lapse of time (minute) and the arrows indicate the time when administration was conducted.

[6] = system: Amine content in the brain; assay: Amine content in the brain of mice administered with erythro-DOPS; assay type: in vivo; settings: for Dopamine content in the brain / Serotonin content in the brain / Noradrenaline (NA) content in the brain: mean of three mice ±SD
Method: PIH (50 mg/kg) was previously administered to mice and after lapse of 17 hours, physiological saline or DL-erythro-DOPS (200 mg/kg) was intraperitoneally injected to the mice.
Amine content in the brain was measured after a lapse of 30 minutes from the injection.
The content was expressed as ng/g wet weight and shown as mean value of the three mice±SD.

[7] = animal experiments; U.S. Pat. No. 3,920,728; cited from earlier work
[8] = Acute oral toxicity (LD50); settings: mouse, in vivo
harmaline induced tremor = settings: Japanese Patent Publication No. 125630/1977; cited from earlier work
orthostatic hypotension = settings: U.S. Pat. No. 4,330,558; cited from earlier work
[9] = system: freezing phenomenon in parkinson's disease; settings: UK Patent Publication No. 2106388; cited from earlier work
[10] = major tranquilizers; cited from earlier work
[11] = system: Amine content in the brain; assay: Amine content in the brain of PIH administered mice; assay type: in vivo; settings: PIH 50 mg/kg i.p., 17 hours, mean of three mice ±SD
Method: A physiological saline or PIH (50 mg/kg) was intraperitoneally injected to mice and content of amine in the brain was measured after 17 hours.
The measurement was substantially in accordance with the method of Ogasawara et al (J. Chromatography 180, 119). The content was expressed as ng/g wet weight and shown as mean value of the three mice ±SD.

mania = settings: cited from earlier work
[12] = continuously in blood; cited from earlier work
[13] = DL-erythro-DOPS 200 mg/kg i.p. together with methamphetamine 1.4 mg/kg
[14] = DL-erythro-DOPS given 180 minutes after tranylcypromine
[15] = PIH 50 mg/kg 17 hours before + DL-erythro-DOPS 200 mg/kg i.p., 30 minutes
[16] = PIH 50 mg/kg i.p., 16 hours after administration
[17] = PIH 50 mg/kg + physiological saline, 30 minutes after injection

Compound: N[C@H](C(=O)O)[C@@H](O)c1ccc(O)c(O)c1 (racemic) [L-erythro-DOPS, L or DL-erythro-3-(3,4-dihydroxyphenyl)serine]
- Ptosis score ([1]; 100 mg/kg i.p. alone): 2.0 ± 0.4
- Ptosis score ([1]; 200 mg/kg i.p. alone): 2.3 ± 0.5
- conversion to noradrenaline in vivo [2]: to d-NA

Compound: N[C@H](C(=O)O)[C@@H](O)c1ccc(O)c(O)c1 (relative stereo) [DL-erythro-DOPS, DL-erythro-3-(3,4-dihydroxyphenyl)serine]
- quantity of spontaneous movement ([3]; DL-erythro-DOPS 200 mg/kg i.p., mice pretreated with PIH (50 mg/kg)): conspicuous decrease in the quantity of spontaneous movement
- action of methamphetamine to increase the quantity of spontaneous movement [4, 13]: retrained
- increase of the quantity of movement [4, 13]: not noticeable
- quantity of movement [5, 14]: began to decrease
- time after which the quantity of movement began to decrease [5, 14]: about 20 minutes
- duration of decrease in quantity of movement ([5]; DL-erythro-DOPS given 180 minutes after tranylcypromine, then returned to original increased state): 30 to 90 min
- Dopamine content in the brain [6, 15]: 895 ± 52 ng/g wet weight
- Serotonin content in the brain [6, 15]: 821 ± 92 ng/g wet weight
- Noradrenaline (NA) content in the brain ([6]; PIH 50 mg/kg 17 hours before + DL-erythro-DOPS 200 mg/kg i.p., 30 minutes, *: P <0.005): 1476 ± 105 ng/g wet weight

Compound: N[C@H](C(=O)O)[C@@H](O)c1ccc(O)c(O)c1 (relative stereo) [erythro-DOPS, erythro-3-(3,4-dihydroxyphenyl)serine]
- suppression of psychomotor excitement ([3]; summary of Experimental Examples 1 to 3): suppresses psychomotor excitement
- change of contents of amines in the brain (NA, dopamine, serotonin) ([6]; Experimental Examples 4 and 5): only NA significantly increases
- ptosis induced by tetrabenazine ([1]; administration of erythro-DOPS): enhanced
- antihypertensive or antidepressive effect [7]: has an antihypertensive or antidepressive effect
- Toxicity [8]: extremely low
- LD50 ([8]; po): ≥ 5000 mg/kg

Compound: N[C@H](C(=O)O)[C@H](O)c1ccc(O)c(O)c1 (relative stereo) [threo-DOPS]
- antihypertensive or antidepressive effect [7]: has an antihypertensive or antidepressive effect
- effect on harmaline induced tremor (harmaline induced tremor): inhibitory effect
- treatment of orthostatic hypotension (orthostatic hypotension): clinically effective
- treatment of freezing phenomenon in parkinson's disease [9]: clinically effective

Compound: N[C@@H]1C[C@H]1c1ccccc1 (relative stereo) [tranylcyromine]
- spontaneous movement ([5]; 50 mg/kg i.p.): gradually increased
- time to maximum spontaneous movement ([5]; 50 mg/kg i.p., after administration, then maintained): 120 min

Compound: CN(C)CCCN1c2ccccc2Sc2ccc(Cl)cc21 [Chloropromazine]
- tranquilizing effects [10]: strong tranquilizing effects

Compound: N[C@H](C(=O)O)C(O)c1ccc(O)c(O)c1 (stereo partly drawn) [L-DOPS]
- conversion to noradrenaline in vivo [2]: converted to noradrenaline

Compound: N[C@H](C(=O)O)[C@H](O)c1ccc(O)c(O)c1 [L-threo-DOPS]
- conversion to noradrenaline in vivo [2]: converted to l-NA

Compound: CC(Cc1ccccc1)NN (stereo not drawn) [PIH, β-phenylisopropylhydrazine hydrochloride]
- quantity of spontaneous movement [3, 16]: tendencies of increase in the spontaneous movement quantity
- time required before the mice became calm [3, 16]: increase in time required before the mice became calm
- Dopamine content in the brain ([11]; **: P <0.05): 1026 ± 122 ng/g wet weight
- Noradrenaline (NA) content in the brain ([11]; *: P <0.005): 1085 ± 79 ng/g wet weight
- Serotonin content in the brain ([11]; *: P <0.005): 1260 ± 39 ng/g wet weight
- Dopamine content in the brain [6, 17]: 941 ± 56 ng/g wet weight
- Noradrenaline (NA) content in the brain [6, 17]: 832 ± 88 ng/g wet weight
- Serotonin content in the brain [6, 17]: 942 ± 133 ng/g wet weight

Compound: NC(CO)C(=O)NNCc1ccc(O)c(O)c1O (stereo not drawn) [benserazide]
- effects of erythro-DOPS on combination use of a peripheral decarboxylase inhibitor [1]: significantly enhanced

Compound: NC(=O)N1c2ccccc2C=Cc2ccccc21 [carbamazepine]
- antimanic effect (mania; human, in vivo): has an antimanic effect

Compound: C[C@@](Cc1ccc(O)c(O)c1)(NN)C(=O)O [carbidopa]
- effects of erythro-DOPS on combination use of a peripheral decarboxylase inhibitor [1]: significantly enhanced

Compound: O=C(CCCN1CCC(O)(c2ccc(Cl)cc2)CC1)c1ccc(F)cc1 [haloperidol]
- tranquilizing effects [10]: strong tranquilizing effects

Compound: COc1ccc2c(c1)N(C[C@H](C)CN(C)C)c1ccccc1S2 [levomepromazine]
- tranquilizing effects [10]: strong tranquilizing effects

Compound: O=C(O)O [lithium carbonate]
- time before a noticeable effect (mania; treatment with lithium carbonate): 3 to 8 days

Compound: CN[C@@H](C)Cc1ccccc1 [methamphetamine]
- quantity of spontaneous movement ([4]; methamphetamine 1.4 mg/kg i.p.): abruptly increased
- time to restoration to nearly the former state ([4]; methamphetamine 1.4 mg/kg i.p.): 2 h
- time after which quantity of spontaneous movement began to decrease ([4]; methamphetamine 1.4 mg/kg i.p., from the injection): 50 min

Compound: lithium
- lithium concentration in blood at which lithium poisoning will occur [12]: ≥ 2.0 mEq/l

From patent US4529603A, “Pharmaceutical composition and method for treatment of psychomotor excitement” (priority 1983, dated 1985)
